From patent publication US9809562B2, “NAT10 modulators for treating or preventing laminopathies, aging and cancer” (CAMBRIDGE ENTERPRISE LIMITED, priority 2014, dated 2017)
Where a name gives a salt, the structure may show the parent alone.

Key:
Assay type in all cases: cell-based, human
[1] = tested on: Lamin A/C depleted (siLMNA) U2OS cells; assay: Nuclear shape rescue (DAPI staining, nuclear circularity) in Lamin A/C depleted cells; conditions: for nuclear shape / nuclear circularity rescue: 16 hours, Compound 2 and 3 50 μM, MB-3 5 μM, FTI 5 μM, nocodazole 200 ng/ml, colchicine 1 μg/ml, latrunculin A 1 μM; for increase in potency compared to Compound 2 (dose-dependent nuclear shape rescue): DAPI staining
Protocol: U2OS and SaOS-2 osteosarcoma cells, HeLa cervical cancer cells, A431 melanoma cells, NCI-SNU5 gastric cancer cells, MRC-5 lung fibroblast cells and Werner syndrome patient-derived SV40 fibroblast cells were grown in Dulbecco's modified Eagle medium (DMEM, Sigma-Aldrich) supplemented with 10% fetal bovine serum (BioSera), 2 mM L-glutamine, 100 U per ml penicillin, 100 μg ml^−1 streptomycin. Normal skin primary fibroblasts GM03440 and Hutchinson Gilford Progeria Syndrome (HGPS) skin primary fibroblasts AG11498 and AG06297 were purchased from Coriell Cell Repositories and used between passage number 9-12 and 20-23 respectively. Cells were grown in DMEM supplemented as above. RPE-1 retinal pigment epithelial cells were grown in DMEM and Ham F12 mix medium supplemented as above and buffered with sodium bicarbonate. HMV-II melanoma cell line, 22RV1 prostate carcinoma cells, NCI-H82 and NCI-H69 lung carcinoma cells, and NCI-N87 gastric cancer cell lines were grown in RPMI-1640 medium (Sigma-Aldrich) supplemented as above. Stably transfected U2OS cells were maintained in standard medium containing 1 mg ml^−1 G418 (Invitrogen). The siRNA duplexes were obtained from Life Sciences: Lamin A/C stealth RNAi: […] (SEQ ID NO: 1) and […] (SEQ ID NO: 2), NAT10 stealth RNAi: […] (SEQ ID NO: 3), and as control siRNA, stealth RNAi negative control duplexes were used. Plasmid DNA and siRNA transfections were carried out using Lipofectamine 2000 and Lipofectamine RNAiMax (Life Sciences) respectively, following the manufacturer's instructions. Cells were analysed 48 to 72 hours after transfection.
The following KAT and KDAC inhibitors were used in the nuclear shape rescue screen, incubating cells with the molecules for 16 hours: trichostatin A (1 μM), sodium butyrate (5 mM), tubacin (10 μM), SAHA (5 μM), curcumin (10 μM), garcinol (50 μM), anacardic acid (1 μM), MB-3 (5 μM), 4-(4-chlorophenyl)-2-(2-cyclopentylidenehydrazinyl)thiazole (Compound 2) (50 μM), 4-(4-chlorophenyl)-2-(2-cyclopentylidene-1-(prop-2-yn-1-yl)hydrazinyl)thiazole (Compound 3) (50 μM) and cyclopentylidene-[4-(4-cyanophenyl)thiazol-2-yl)hydrazine (Compound 1) (Remodelin) (10 to 50 μM). For HGPS cellular fitness assays, Remodelin was incubated at 1 μM for 1 to 10 days, renewing the medium every 3 days. For long-term senescence assay, cells were kept and passaged in medium containing 1 μM Remodelin or DMSO only for 12 population doublings. Senescence was assessed after 8 days of Remodelin treatment when cells were at Population Doubling 12, and then after several weeks of Remodelin treatment, when cells reached Population Doubling 24 using the Senescence β-Galactosidase Staining Kit #9860 from Cell Signaling. Nocodazole, colchicine and latrunculin A (Sigma-Aldrich) were used at 200 ng/ml, 1 μg/ml and 1 μM respectively. Aphidicolin (Sigma-Aldrich) was used at 5 μg/ml for 16 h. Farnesyltransferase inhibitor FTI-277 was purchased from Tocris Bioscience and used at 5 μM. ATMi (KU55933) and ATRi (ATR-45) were obtained from Tocris Bioscience and from the Ohio State University respectively and used at 10 μM and 500 nM. Pifithrin alpha (Sigma-Aldrich) was used at 10 μM.
CellProfiler software was used to quantify nuclear circularity and nuclear area from DAPI staining pictures, using the “object size shape” measurement. The AreaShape measurement allowed the calculation of the Form Factor index ([…]) corresponding to circularity (a Form Factor of 1 reflecting a perfect circle), as well as the calculation of nuclear Area.
Lamin A/C was depleted by siRNA in U2OS cells (siLMNA) to induce misshapen nuclei. Cells were then treated for 16 h with various analogues of Compound 2 and nuclear shape rescue was analysed by DAPI staining. The results are shown in FIG. 18 and FIG. 19 which display the structures of the tested molecules and their ability to rescue nuclear shape.

siLMNA cells = assay: Cell cycle profile by flow cytometry
Protocol: 10 μM EdU was incubated for 2 hours when indicated. Cells were fixed in 4% paraformaldehyde (Sigma-Aldrich). EdU was fluorescently labeled using the Click-iT® EdU Flow Cytometry Assay Kit (Life Sciences). DNA was stained with […] propidium iodide (Sigma-Aldrich) in phosphate buffer solution (PBS) containing 0.1% Triton-X-100 and 0.5 mg ml^−1 DNase free RNase A (Sigma-Aldrich). Samples were processed on a FACSCalibur flow cytometer equipped with CellQuest software (Becton Dickinson). Results were analysed using FlowJo software (TreeStar).

[2] = A431 proliferation assay (IncuCyte ZOOM)
Protocol: A431 cells expressing a low level of Lamin A protein (see FIG. 2) were plated at low density and treated with the indicated concentration of Compound 2. Cell growth was monitored automatically over time using an IncuCyte ZOOM®.

[3] = tested on: cancer cell lines with low or high Lamin A/C expression; assay: Population doubling time of cancer cell lines
Protocol: FIG. 15: Compound 2 inhibits the proliferation, migration and invasion of cancer cells with low Lamin A/C expression. […] C) Quantification of transwell migration assays and matrigel invasion assays from the indicated low expressing cancer cell lines after treatment with 50 μM of compound 2.

SMILES | nuclear shape / nuclear circularity rescue [1] | effect on cell cycle profile (siLMNA cells; siLMNA cells) | A431 cell growth ([2]; indicated concentrations, growth monitored over time) | population doubling time, sensitivity by Lamin A level ([3]; 50 μM for 1 week) | increase in potency compared to Compound 2 (dose-dependent nuclear shape rescue) [1] | increase in potency compared to Compound 2 (dose-dependent nuclear shape rescue) ([1]; listed as Remodelin) | accumulation of cells in mitosis (siLMNA cells) | reduction of A431 proliferation ([2]; 10 μM) | proliferation of cells expressing high levels of lamin A/C ([3]; up to 50 μM)
Clc1ccc(-c2csc(NN=C3CCCC3)n2)cc1 [Compound 2, 4-(4-Chlorophenyl)-2-(2-cyclopentylidenehydrazinyl)thiazole Hydrochloride Salt] | completely restoring nuclear shape and circularity | without markedly affecting the cell cycle profile | inhibited in a dose-dependent manner | cells expressing low levels of Lamin A are more sensitive to the molecule | – | – | – | – | –
N#Cc1ccc(-c2csc(NN=C3CCCC3)n2)cc1 [Compound 1, 4-(4-Cyanophenyl)-2-(2-cyclopentylidenehydrazinyl)thiazole] | – | – | – | – | five-fold | ~5 fold | cells did not accumulate in mitosis | about 50% | not affected by up to 50 μM Remodelin
C#CCN(N=C1CCCC1)c1nc(-c2ccc(Cl)cc2)cs1 [Compound 3, 4-(4-Chlorophenyl)-2-(2-cyclopentylidene-1-(prop-2-yn-1-yl)hydrazinyl)thiazole] | equivalent cellular activity as Compound 2 | – | – | – | – | – | – | – | –
